Reference: BigSolDB 2.1

O=c1[nH]c2ccccc2c(=O)o1
solubility (mole fraction)
Conditions | 288.15 K | 293.15 K | 298.15 K | 303.15 K | 308.15 K | 313.15 K | 318.15 K | 323.15 K | 328.15 K
in 1,4-dioxane | 0.00839 | 0.00944 | 0.0107 | 0.0119 | 0.0133 | 0.0146 | – | 0.0179 | 0.0198
in 2-butanone | 0.00741 | 0.00805 | 0.00877 | 0.00964 | 0.0107 | 0.0117 | 0.0129 | 0.014 | 0.0153
in acetone | 0.00794 | 0.00873 | 0.00965 | 0.0109 | 0.0122 | 0.0135 | 0.0149 | 0.0165 | 0.0184
in acetonitrile | 0.003 | 0.0033 | 0.00374 | 0.0043 | 0.00485 | 0.00553 | 0.00624 | 0.00712 | 0.00797
in ethanol | 0.00134 | 0.0015 | 0.00175 | 0.00201 | 0.00239 | 0.00277 | 0.00328 | 0.00381 | 0.00439
in ethyl acetate | 0.0032 | 0.00352 | 0.00389 | 0.00434 | 0.00482 | 0.00533 | 0.00582 | 0.00636 | 0.00694
in isopropanol | 0.00104 | 0.00121 | 0.00144 | 0.00176 | 0.00216 | 0.00265 | 0.00316 | 0.0038 | 0.00457
in isopropyl acetate | 0.00185 | 0.00206 | 0.00234 | 0.00256 | 0.00291 | 0.00325 | 0.0036 | 0.00396 | 0.00434
in methanol | 0.00149 | 0.00173 | 0.00204 | 0.00243 | 0.00295 | 0.00354 | 0.00425 | 0.00507 | 0.00606
in methyl acetate | 0.00415 | 0.00464 | 0.00517 | 0.00573 | 0.00634 | 0.00699 | 0.00768 | 0.00844 | 0.00937
in n-propanol | 0.00116 | 0.00133 | 0.00152 | 0.00181 | 0.00208 | 0.0025 | 0.00291 | 0.00341 | 0.00394
in n-propyl acetate | 0.00229 | 0.00255 | 0.00285 | 0.00318 | 0.00351 | 0.00394 | 0.00434 | 0.00477 | 0.00534
